Assay results from US20150119267A1, “INHIBITION OF COLONY STIMULATING FACTOR-1 RECEPTOR SIGNALING FOR THE TREATMENT OF BRAIN CANCER” (SLOAN-KETTERING INSTITUTE FOR CANCER RESEARCH, priority 2012, published 2015).
“Also recorded” adds a separate entry of the source.

Experiments:
Mrc1 = Mrc1 expression in primary glioma cultures (flow cytometry); type: cell-based, mouse; details: CD45+CD11b+ cells
Experimental: Macrodissected tumors were digested to a single cell suspension by incubation for 8-12 minutes at 37° C. as described above. The cell suspension was washed with Neural Stem Cell (NSC) Basal Media (Stem Cell Technologies), and centrifuged at low speed (750 rpm Sorvall Legend RT), to remove debris. To derive mouse primary glioma cultures, the cell pellet was resuspended in DMEM containing 10% FBS (Gibco). These primary cultures were used at early passage (P2-P3), and contain a mixture of different cell types found in gliomas including tumor cells, macrophages, and astrocytes as determined by immunofluorescence staining. Primary glioma cultures were grown for 24 hours on poly-L-lysine coated coverslips (BD Biocoat). Cells were then fixed with 4% PFA in 0.1M phosphate buffer overnight at 4° C., permeabilized with 0.1% Triton-X for 5 minutes and blocked with 0.5% PNB for at least one hour. […]
For mouse primary glioma cultures (containing a mixed population of tumor cells, TAMs, astrocytes etc.; see FIG. 15), 1×10^6 cells were cultivated in DMEM+10% FBS in the presence of the CSF-1R inhibitor or DMSO as vehicle (n=6 independently isolated cultures). […] Cells were counted and incubated with 1 μl of Fc Block (BD Pharmingen) per 10^6 cells for at least 15 minutes at 4° C. […]

>200 kinases = assay: biochemical kinase panel; details: read-out: biochemical IC50 values for >200 kinases tested; except cKIT and PDGFRβ; data not shown
normal microglia = assay: Microglia in normal non-tumor bearing mice, flow cytometry; type: in vivo, mouse; details: 200 mg/kg once per day for 7 days
Experimental: Data are presented as mean±SEM. […] Circles represent individual mice (n=5-6 per group). P values were obtained using unpaired two-tailed Student's t-test; *P<0.05.
As many immune cell epitopes are papain-sensitive, for investigation of immune cell infiltration by flow cytometric analysis, tumors were digested to a single cell suspension by incubation for 10 minutes at 37° C. with 5 mL of 1.5 mg/ml collagenase III (Worthington) and 0.06 mg/mL DNase I in 1× Hanks Balanced Salt Solution (HBSS) with calcium and magnesium. The cell suspension was then washed with PBS and passed through a 40 μm mesh to remove undigested tissue. To remove myelin debris, the cell pellet was resuspended at room temperature in 15 ml of 25% Percoll prepared from stock isotonic Percoll (90% Percoll [Sigma], 10% 10× HBSS), and then spun for 15 minutes at 1500 rpm (Sorvall Legend RT) with accelerator and brake set to 1. The cell pellet was then washed with lx HBSS prior to being resuspended in FACS buffer.
After counting, cells were incubated with 1 μl of Fc Block for every million cells for at least 15 minutes at 4° C. Cells were then stained with the appropriate antibodies for 10 minutes at 4° C., washed with FACS buffer, and resuspended in FACS buffer containing DAPI (5 mg/ml diluted 1:5000) for live/dead cell exclusion.

[1] = tested on: primary bone marrow-derived macrophages (BMDMs); assay: MTT assay, primary BMDMs; type: cell-based, mouse; details: wild-type C57BL/6 BMDMs in culture, 67 nM
Experimental: (§1) Cell growth rate was determined using the MTT cell proliferation kit (Roche). […] Media was changed every 48 hours. BMDM and CRL-2467 cells were supplemented with 10 ng/ml and 30 ng/ml recombinant mouse CSF-1 respectively unless otherwise indicated. Ten μl of MTT labeling reagent was added to each well and then incubated for 4 hours at 37° C., followed by the addition of 100 μl MTT solubilization reagent overnight. The mixture was gently resuspended and absorbance was measured at 595 nm and 750 nm on a SPECTRAMAX 340 pc plate reader (Molecular Devices).

CD11b+Gr-1− TAMs = assay: Gene expression profiling of TAMs (microarray); type: in vivo, mouse
U-87 MG glioma cell line = assay: MTT assay, U-87 MG; type: cell-based, human; details: concentrations up to 6700 nM
Experimental: (§2) U-87 MG (HTB-14) glioma and CRL-2467 microglia cell lines were purchased from ATCC. The U-87 MG cell line was cultured in DMEM+10% FBS. The CRL-2467 cell line was cultured in DMEM+10% FBS with 30 ng/ml recombinant mouse CSF-1.
as §1

[2] = tested on: CSF1-dependent cell proliferation; assay: CSF1-dependent cell proliferation; type: cell-based; details: read-out: inhibits CSF1-dependent cell proliferation
[3] = BLZ945 pharmacokinetics, blood-brain barrier; type: in vivo, mouse; details: single dose 200 mg/kg oral gavage
Experimental: The CSF-1R inhibitor was obtained from the Novartis Institutes for Biomedical Research (Emeryville, Calif.). The drug was formulated in 20% captisol at a concentration of 12.5 mg/ml. The vehicle control, 20% captisol, was processed in the same manner. […] To determine if the drug was able to cross the blood-brain barrier, tumor-bearing mice were treated with a single dose of the CSF-1R inhibitor and sacrificed at different time points post-treatment. Plasma, and the left (contralateral) and right (tumor-bearing) hemispheres of the brain were snap frozen in liquid nitrogen for subsequent analysis of CSF-1R inhibitor concentrations in the tissue. For long-term survival studies, dosing begun at 17 days/2.5 weeks post-injection of RCAS-PDGF-B-HA. For the fixed time-point studies, mice underwent MRI scans at 4-5 weeks post-injection of RCAS-PDGF-B-HA, as previously described (5). To determine tumor volume, regions of interest (ROI) were circumscribed on T2 weighted images and their corresponding area in mm^2 was multiplied by the slice height of 0.7 mm. The total tumor volume is the sum of the ROI volume in each slice, and the volume for the first and last slice in which the tumor appears is halved to approximate the volume of a trapezoid. When tumor volume was in the range of 4.5-40 mm^3, animals were randomly assigned to treatment groups. […]

[4] = tested on: CRL-2467 microglia cell line; assay: MTT assay, CRL-2467 microglia; type: cell-based
Experimental: as §2, §1

CNC(=O)c1cc(Oc2ccc3nc(N[C@@H]4CCCC[C@H]4O)sc3c2)ccn1 [BLZ945]
Mrc1 in primary glioma cultures containing TAMs (Mrc1): decreased
IC50 (>200 kinases): > 10 µM
normal microglia in non-tumor bearing mice (normal microglia): depletes normal microglia
macrophage (BMDM) survival / viability [1]: significantly decreases the viability; also recorded: blocks macrophage survival
targets of Egr2 (GSEA) (CD11b+Gr-1− TAMs; 7 days treatment): downregulated
upregulated differentially expressed genes (CD11b+Gr-1− TAMs; BLZ945 versus vehicle, 7 days treatment): 52 genes
classically activated/M1 macrophage markers (CD11b+Gr-1− TAMs; with the exception of IL-1 beta): not differentially expressed
U-87 MG human glioma cell proliferation (U-87 MG glioma cell line): no effect
IC50 [2]: 67 nM
blood-brain barrier crossing [3]: able to effectively cross the blood-brain barrier
concentration in contralateral non-tumor bearing hemisphere versus tumor ([3]; all time points tested): comparable to the level achieved in the tumor
survival / viability of microglia cell line [4]: reduced viability; also recorded: blocks survival
